Data: patent US6004960A, “Pyridazinones as inhibitors of cyclooxygenase-2” (Merck Frosst Canada, Inc., priority 1998, dated 1999)

Key:
COX-1 = COX-1 (Homo sapiens, UniProt P23219); experiment: Human whole blood assay, COX-1 (clotting-induced TxB2 production); format: cell-based; set-up: platelets in whole blood contain a large amount of the COX-1 enzyme; from tissue; host or cells: fresh human whole blood (platelets), allowed to clot; settings: clotting-induced TxB2, 1 hour at 37° C, read-out: COX-1 (IC50 μM) HWB
COX-1, sequence (P23219 24-599): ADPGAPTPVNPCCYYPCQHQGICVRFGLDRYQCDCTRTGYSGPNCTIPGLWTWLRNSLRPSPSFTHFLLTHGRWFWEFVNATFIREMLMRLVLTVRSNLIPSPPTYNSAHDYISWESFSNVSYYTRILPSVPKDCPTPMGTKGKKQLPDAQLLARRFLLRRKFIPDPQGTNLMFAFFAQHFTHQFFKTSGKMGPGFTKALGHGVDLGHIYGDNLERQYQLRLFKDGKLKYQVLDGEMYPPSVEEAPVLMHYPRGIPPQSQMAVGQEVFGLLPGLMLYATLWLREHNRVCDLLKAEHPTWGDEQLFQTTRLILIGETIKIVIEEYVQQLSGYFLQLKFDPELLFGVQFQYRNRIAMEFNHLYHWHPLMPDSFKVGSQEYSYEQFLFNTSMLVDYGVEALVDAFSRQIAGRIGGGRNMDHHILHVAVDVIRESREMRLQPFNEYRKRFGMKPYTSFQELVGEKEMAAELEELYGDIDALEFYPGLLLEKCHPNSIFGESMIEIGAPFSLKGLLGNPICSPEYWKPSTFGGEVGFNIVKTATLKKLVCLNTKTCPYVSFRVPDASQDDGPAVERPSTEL
Procedure: Human whole blood provides a protein and cell-rich milieu appropriate for the study of biochemical efficacy of anti-inflammatory compounds such as selective COX-2 inhibitors. […] This is consistent with the observation that COX-2 inhibitors have no effect on PGE2 production in normal blood. These inhibitors are active only after incubation of human whole blood with LPS, which induces COX-2. This assay can be used to evaluate the inhibitory effect of selective COX-2 inhibitors on PGE2 production. As well, platelets in whole blood contain a large amount of the COX-1 enzyme. Immediately following blood clotting, platelets are activated through a thrombin-mediated mechanism. This reaction results in the production of thromboxane B2 (TxB2) via activation of COX-1. Thus, the effect of test compounds on TxB2 levels following blood clotting can be examined and used as an index for COX-1 activity. Therefore, the degree of selectivity by the test compound can be determined by measuring the levels of PGE2 after LPS induction (COX-2) and […] following blood clotting (COX-1) in the same assay.
B. COX-1 (Clotting-induced TxB2 production)
Fresh blood is collected into vacutainers containing no anticoagulants. […] The tubes are vortexed and incubated at 37° C. for 1 hour to allow blood to clot. At the end of incubation, serum is obtained by centrifugation (12,000×g for 5 min.). A 100 μL aliquot of serum is mixed with 400 μL of methanol for protein precipitation. The supernatant is obtained and is assayed for T×B2 using a enzyme immunoassay kit (Cayman, #519031) according to the manufacturer's instruction.

COX-2 = target: T1, COX-2 (Homo sapiens, UniProt P35354); experiment: Human whole blood assay, COX-2 (LPS-induced PGE2 production); format: cell-based; set-up: incubation of human whole blood with LPS, which induces COX-2; from tissue; host or cells: fresh human whole blood (volunteers), incubated with LPS; settings: LPS-induced PGE2, 24 hours at 37° C, read-out: COX-2 (IC50 μM) HWB
T1 sequence (P35354 18-604): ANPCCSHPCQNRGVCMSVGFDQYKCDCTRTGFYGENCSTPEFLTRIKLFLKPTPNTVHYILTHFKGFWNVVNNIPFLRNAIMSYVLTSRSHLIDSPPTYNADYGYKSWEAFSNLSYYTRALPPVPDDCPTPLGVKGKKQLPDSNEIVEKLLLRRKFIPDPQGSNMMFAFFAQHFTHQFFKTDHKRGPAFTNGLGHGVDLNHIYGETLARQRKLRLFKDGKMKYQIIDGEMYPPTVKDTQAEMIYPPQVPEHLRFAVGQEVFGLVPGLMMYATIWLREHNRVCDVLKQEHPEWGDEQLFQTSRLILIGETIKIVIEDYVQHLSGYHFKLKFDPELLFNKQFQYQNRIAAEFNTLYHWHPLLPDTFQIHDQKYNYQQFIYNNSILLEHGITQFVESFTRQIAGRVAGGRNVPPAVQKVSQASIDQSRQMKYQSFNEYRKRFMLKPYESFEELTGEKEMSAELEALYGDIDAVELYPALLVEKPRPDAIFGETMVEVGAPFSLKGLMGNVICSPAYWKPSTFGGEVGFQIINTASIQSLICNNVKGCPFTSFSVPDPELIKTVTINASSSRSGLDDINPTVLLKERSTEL
From the text: As well, platelets in whole blood contain a large amount of the COX-1 enzyme. Immediately following blood clotting, platelets are activated through a thrombin-mediated mechanism. This reaction results in the production of thromboxane B2 (TxB2) via activation of COX-1. Thus, the effect of test compounds on TxB2 levels following blood clotting can be examined and used as an index for COX-1 activity. Therefore, the degree of selectivity by the test compound can be determined by measuring the levels of PGE2 after LPS induction (COX-2) and […] following blood clotting (COX-1) in the same assay.
A. COX-2 (LPS-induced PGE2 production)
Fresh blood is collected in heparinized tubes by venipuncture from both male and female volunteers. The subjects have no apparent inflammatory conditions and have not taken any NSAIDs for at least 7 days prior to blood collection. Plasma is immediately obtained from a 2mL blood aliquot to use as blank (basal levels of PGE2). The remaining blood is incubated with LPS (100 μg/ml final concentration, Sigma Chem, #L-2630 from E. coli; diluted in 0.1% BSA (Phosphate buffered saline) for 5 minutes at room temperature. Five hundred μL aliquots of blood are incubated with either 2μL of vehicle (DMSO) or 2 μL of a test compound at final concentrations varying from 10nM to 30 μM for 24 hours at 37° C. At the end of the incubation, the blood is centrifuged at 12,000×g for 5 minutes to obtain plasma. A 100 μL aliquot of plasma is mixed with 400 μL of methanol for protein precipitation. The supernatant is obtained and is assayed for PGE2 using a radioimmunoassay kit (Amersham, RPA#530) after conversion of PGE2 to its methyl oximate derivative according to the manufacturer's procedure. […]

An IC50 (COX-1) of 56 µM and an IC50 (COX-2) of 1.5 µM were found for `CS(=O)(=O)c1ccc(-c2cnn(Cc3ccccc3)c(=O)c2-c2cccnc2)cc1` [Example 28, 2-Benzyl-5-(4-methylsulfonyl)phenyl-4-(3-pyridyl)-2H-pyridazin-3-one] in this work.
